{"source": "patent US11986482B2", "about": "“Method of promoting antitumor or anti-cancer immunity” (City University of Hong Kong, priority 2021, dated 2024)", "key": {"[1]": {"test": "Subchronic toxicity in Balb/C mice, 4 weeks oral", "format": "in vivo, mouse", "conditions": "30 mg/kg per day", "protocol": "Last, inventors investigate the in vivo toxicity of 6J1 in mice. 6-week-old Balb/C mice are treated with […] (PEG400/Ethanol/tween80, 1:1:1) or 6J1 (30 mg/kg, per day) via oral route for 4 weeks. Clinical observations, e.g., food consumption, body weight changes, and ophthalmic exams, are performed every three days. Tissue weight index (tissue weight/body weight×100%) are measured. […] 6J1 has no effects on mouse weight gain and weights of various organs (FIGS. 18a and 18b). At the end of experiment, the blood is collected from mice in each group for AST, ALT, and ALP measurement. The mice are then sacrificed, and the major organs are isolated, examined, and subjected to H&E staining."}, "[2]": {"system": "4T1 mouse mammary carcinoma", "test": "Orthotopic 4T1 mammary carcinoma model in syngeneic Balb/c mice", "format": "in vivo", "conditions": "oral gavage, daily", "protocol": "To determine whether 6J1 can promote anti-cancer immunity in vivo, 4T1 cells are orthotopically transplanted into syngeneic Balb/c mice. The mice are randomly divided into three groups (n=7 per group) and treated with either buffer or 6J1 (15 or 30 mg/kg, daily) via oral gavage. Tumor volume and body weight of mice are measured at the indicated time point. After the tumor reaches the indicated size, the mice are treated with 6J1 (via oral gavage) at different doses (15 mg/kg or 30 mg/kg) daily for 4 weeks. […] The effective dosages of 6J1 in vivo can range from about 0.1 mg/kg to about 300 mg/kg; or from about 1 mg/kg to about 200 mg/kg; or from about 3 mg/kg to about 100 mg/kg, taking into account, for example, activity and toxicity"}, "HeLa cells [3]": {"system": "HeLa cells", "test": "DQ-BSA endocytic trafficking assay", "format": "cell-based", "conditions": "1 μM, 3 h then 6 h with 10 μg/ml DQ-green BSA, flow cytometry", "protocol": "(§1) A DQ-BSA endocytic trafficking assay screens these compounds. DQ-BSA, a self-quenching dye, is internalized into the cytoplasm by endocytosis, after which it is delivered to the lysosomes for degradation to relieve fluorescence-quenching, resulting in bright fluorescence in cells. HeLa cells are plated on 6-well plates and treated with the indicated compound for 3 h. Then, cells are replaced with Trafficking media containing 10 μg/ml DQ-green BSA with or without drugs (1 μM) and incubated at 37° C. in a 5% CO2 humidified cell culture chamber another 6 h followed by Flow cytometry analysis. […] Inventors also test whether these hit compounds can inhibit the recycling endosomal pathway by performing the fluorescent transferrin conjugates recycling assay. Iron-bound transferrin interacts with its receptor (TfR) to trigger the internalization of the iron-transferrin-TfR complex via clathrin-mediated endocytosis. Fe^3+ irons are subsequently dissociated from their ligands in the acidic endosome environment and released into the cytoplasm. […] Thus, the fluorescence intensity of fluorescent transferrin conjugates-labeled cells can reflect the recycling endocytic trafficking process. […] Cells are collected for flow cytometry analysis, and the mean fluorescence intensity of transferrin is quantified."}, "Raw246.7 cells": {"system": "Raw246.7 cells", "test": "Chemokine level in supernatant of Raw246.7 cells", "format": "cell-based", "conditions": "in vitro, 1 μM"}, "HeLa cells [4]": {"system": "HeLa cells", "test": "Fluorescent transferrin conjugates recycling assay", "format": "cell-based", "conditions": "compound 3 h, Transferrin-488 25 μg/ml, flow cytometry", "protocol": "as §1"}, "LC3 and p62": {"system": "LC3 and p62", "test": "Autophagy readouts: LC3/p62 western blot and GFP-RFP-LC3 puncta in HeLa cells", "format": "cell-based", "conditions": "6 h", "protocol": "HeLa cells are treated with or without 6J1. After 6 h, cells are collected for western blot analysis of LC3 and p62. […] In addition, ATG5-knockout HeLa cells are transfected with PD-L1-GFP and LC3-RFP, and then treated with or without 6J1 (1 μM) for 24 h. Cells are fixed and imaged. […] Furthermore, LC3B-knockout HeLa cells are transfected with PD-L1-GFP, and then treated with or without 6J1 (1 μM) for 24 h. Cells are fixed and stained with antibodies against Rab5 (FIG. 6d) or Rab27a (FIG. 6e)."}, "PD-L1": {"system": "PD-L1", "test": "Western blot of PD-L1 in exosomes of 4T1 cells", "format": "cell-based, mouse", "conditions": "1 μM", "protocol": "The current PD-L1 and PD1 therapies apply PD-L1 or PD1 monoclonal antibodies to block the PD-L1/PD1 signaling, which results in cytotoxic T cells recognizing and killing the tumor cells. […] First, flow cytometry-based quantification of plasma membrane levels of PD-L1 in 4T1 cells treated with or without 6J1 (1 μM) for 24 h. 4T1 cells are treated with or without 6J1 (1 μM) for 24 h. The supernatant is collected, and the concentration of extracellular vesicle is determined using a Nanosight nanoparticle analyzer in FIG. 8b. The exosomes are also collected and subjected to western blot analysis of the EVs marker and PD-L1 in FIG. 8c.\nTherefore, it is possible that the increased exosomal PD-L1 secretion induced by 6J1 may still suppress the tumor-infiltrating T cell cytotoxicity in vivo, even though 6J1 reduces the cell surface expression level of PD-L1 on the tumor cells. To evaluate the role of exosomal PD-L1 in the tumor microenvironment and tumor progression in mice, inventors knock out Rab27a in 4T1 cells to inhibit the secretion of exosomes. 4T1-shNC or 4T1-shRab27A cells are treated with or without 6J1 (1 μM). The supernatant is collected, and the concentration of extracellular vesicle is determined using a Nanosight nanoparticle analyzer. […] Inventors analyze the plasma membrane levels of PD-L1 in 4T1-shNC or 4T1-shRab27A cells treated with or without 6J1 (1 μM). […]"}, "[5]": {"conditions": "isolated tumor-infiltrating lymphocytes"}, "[6]": {"conditions": "GFP-RFP-LC3-expressing HeLa cells, 1 μM"}}, "note": "Entries after “also recorded” stand apart in the source; their conditions may differ.", "data": [{"smiles": "OCCOCCN(c1ccccc1)c1nc(N/N=C/c2cccc(I)c2)nc(N2CCOCC2)n1", "note": "[Compound 6J1]", "values": [{"measurement": "behavior", "setting": "[1]", "result": "no signs of behavior abnormality"}, {"measurement": "liver function test (AST, ALT, ALP in blood)", "setting": "[1]", "result": "no apparent changes in liver function test"}, {"measurement": "mouse weight gain", "setting": "[1]", "result": "no effects"}, {"measurement": "pathological changes in major organs (H&E staining)", "setting": "[1]", "result": "no signs of pathological changes in major organs"}, {"measurement": "weights of various organs (tissue weight index)", "setting": "[1]", "result": "no effects"}, {"measurement": "cell surface expression of PD-L1 in the primary tumors", "setting": "[2]; 30 mg/kg", "result": "down-regulated"}, {"measurement": "tumor growth", "setting": "[2]; 30 mg/kg, 4 weeks", "result": "significantly decreases the tumor growth"}, {"measurement": "body weight of mice", "setting": "[2]; 15 or 30 mg/kg, 4 weeks", "result": "does not change the body weight of mice"}, {"measurement": "expression of IFN-γ in CD8+ T cells", "setting": "[2]; [5]", "result": "little effect"}, {"measurement": "tumor-infiltrating CD8+ T cell populations", "setting": "[2]; [5]", "result": "significantly increases the tumor infiltrating CD8+ T cell populations; also recorded: significantly increases the tumor-infiltrating CD8+ T cell populations"}, {"measurement": "endocytic trafficking (fluorescence intensity of DQ-BSA-labeled cells)", "setting": "HeLa cells [3]", "result": "dramatically inhibit endocytic trafficking"}, {"measurement": "secretion of various chemokines from Raw246.7 cells", "setting": "Raw246.7 cells", "result": "markedly induces the secretion of various chemokines"}, {"measurement": "recycling endosomal trafficking of transferrin (mean fluorescence intensity)", "setting": "HeLa cells [4]", "result": "effectively inhibit the recycling endosomal trafficking of transferrin; also recorded: performs best"}, {"measurement": "formation of yellow LC3B puncta", "setting": "LC3 and p62; [6]", "result": "significantly induces the formation of yellow LC3B puncta"}, {"measurement": "red-only LC3B puncta", "setting": "LC3 and p62; [6]", "result": "no red-only LC3B puncta are observed"}, {"measurement": "level of LC3B-II and P62", "setting": "LC3 and p62; HeLa cells, western blot", "result": "markedly induced an increase in the level of LC3B-II and P62"}, {"measurement": "6J1-induced exosomal PD-L1 levels", "setting": "PD-L1; 4T1-shRab27A cells", "result": "significantly inhibits"}, {"measurement": "secretion of PD-L1 in exosomes", "setting": "PD-L1; 4T1 cells, 24 h", "result": "induces the secretion of PD-L1 in exosomes"}]}]}
